Experimental data reported in US10028948B2, “Chromone derivative as a dopamine D3 receptor antagonist for its use for the treatment of autism spectrum disorder” (PIERRE FABRE MEDICAMENT, priority 2013, dated 2018).
Counter-ions that a name gives are not always drawn.

Columns and labels:
[1] = target: T1, human recombinant dopamine D3 receptor (Homo sapiens, UniProt P35462); assay: Inhibition of [3H]spiperone binding, human recombinant dopamine D3 receptor; conditions: cells expressing human recombinant D3 receptor, read-out: inhibition constant (Ki), dopamine D3 receptor
T1 construct: expressed in transfected cells
Experimental: (§1) The N-(3-{4-[4-(8-oxo-8H-[1,3]dioxolo[4,5-g]chromen-7-yl)-butyl]-piperazin-1-yl}-phenyl)-methanesulfonamide hydrochloride was evaluated in vitro as a dopamine D3 receptor ligand and modulator of the activity of that receptor in accordance with the invention in cells expressing human recombinant dopamine D3 receptor or human recombinant dopamine D2 receptor. The inhibition constant (Ki) was measured by inhibition of the binding of [^3H] spiperone as described by Cussac et al., in Naunyn-Schmiedeberg's Arch. Pharmacol. 2000, vol 361, p 569-572.

[2] = test system: social interaction behavior of offspring of sodium valproate- or saline-treated female rats; assay: Social interaction in the valproic acid rat model of autism; type: in vivo, Sprague-Dawley rats; conditions: acute administration, scored 10 min, n=10
Experimental: The N-(3-{4-[4-(8-oxo-8H-[1,3]dioxolo[4,5-g]chromen-7-yl)-butyl]-piperazin-1-yl}-phenyl)-methanesulfonamide hydrochloride was tested on social interaction of offspring of female rats which had been administered valproic acid as a sodium salt. The experimental settings of the valproic acid rat model of autism were adapted from published data (Dendrinos et al., Front. Integr. Neurosci. 2011, vol 5, art 68; Markram et al., Neuropsychopharm. 2007, vol 33, p 901-912; Schneider et al., Neuropsychopharm. 2005, vol 30, p 80-89).
Pregnant (embryonic day 8 max) female Sprague-Dawley rats [OFA (SD) Charles River Lyon, France] were quarantined for 4 days. Animals were group housed (2 per cage) in a full bottom cage (ML-H Cage, 370×235×180 mm, L×W×H; floor surface 870 cm^2) in an environmentally controlled room (temperature 21±1° C.; relative humidity 55±5%) under a 12-h light/dark cycle (lights on at 07:00 AM) with food (A04, Safe, Augy, France) and filtered water (0.2 μm pore diameter) freely available. Until weaning of offspring, animals were changed only once per week in order to disturb them as little as possible. Environmental enrichment (nesting material) was provided.
On embryonic days 12 and 13 (E12-E13), females were weighed and received three intraperitoneal injections of 2.4 ml/kg of sodium valproate (NaVPA, 200 mg/kg). Sodium valproate was dissolved in 0.9% saline for a concentration of 83.3 mg/ml, pH 7.3. Control dams received three intraperitoneal injections of saline (2.4 ml/kg). After the third injection, females were individually housed in ML-H type cages and allowed to raise their litters. Offspring were weaned between 21 to 23 days postnatally.
One sodium valproate- or saline-exposed rat and an unfamiliar naïve rat were placed in opposite corners of an arena (black arena 70 cm×70 cm×30 cm, L×I×H). Individual behavior related to social interaction such as following grooming, sniffing or biting the other rat as well as climbing over the other rat, initiated by the tested rat toward the unfamiliar rat were scored for a period of 10 min. […]

[3] = target: T2, human recombinant dopamine D2 receptor (Homo sapiens, UniProt P14416); assay: Inhibition of [3H]spiperone binding, human recombinant dopamine D2 receptor; conditions: human recombinant D2 vs D3 receptor
T2 construct: expressed in transfected cells
Experimental: as §1

T2 sequence (P14416 whole entry): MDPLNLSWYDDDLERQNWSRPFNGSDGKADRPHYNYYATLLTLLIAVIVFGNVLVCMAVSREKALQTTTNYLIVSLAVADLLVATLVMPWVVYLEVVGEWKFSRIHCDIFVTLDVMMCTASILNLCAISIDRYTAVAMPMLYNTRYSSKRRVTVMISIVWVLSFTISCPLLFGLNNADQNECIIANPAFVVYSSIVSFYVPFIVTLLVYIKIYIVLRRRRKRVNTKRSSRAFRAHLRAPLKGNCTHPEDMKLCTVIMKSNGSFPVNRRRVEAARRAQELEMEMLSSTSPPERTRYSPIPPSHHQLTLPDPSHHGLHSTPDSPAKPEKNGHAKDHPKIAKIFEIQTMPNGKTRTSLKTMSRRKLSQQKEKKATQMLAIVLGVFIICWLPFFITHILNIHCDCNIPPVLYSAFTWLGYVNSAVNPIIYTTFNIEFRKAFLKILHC
T1 sequence (P35462 whole entry): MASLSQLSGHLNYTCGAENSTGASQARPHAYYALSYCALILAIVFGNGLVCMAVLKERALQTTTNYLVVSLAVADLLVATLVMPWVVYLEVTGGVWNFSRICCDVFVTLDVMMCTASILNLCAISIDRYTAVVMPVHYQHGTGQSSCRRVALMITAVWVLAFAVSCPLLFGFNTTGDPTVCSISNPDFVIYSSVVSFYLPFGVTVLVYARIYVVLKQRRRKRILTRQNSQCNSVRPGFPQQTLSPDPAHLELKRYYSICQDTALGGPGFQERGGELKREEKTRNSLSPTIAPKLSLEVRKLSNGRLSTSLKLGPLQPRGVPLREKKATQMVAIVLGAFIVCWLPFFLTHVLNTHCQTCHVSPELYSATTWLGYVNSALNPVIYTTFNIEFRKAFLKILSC

SMILES: CS(=O)(=O)Nc1cccc(N2CCN(CCCCc3coc4cc5c(cc4c3=O)OCO5)CC2)c1 [compound according to the invention, N-(3-{4-[4-(8-oxo-8H-[1,3]dioxolo[4,5-g]chromen-7-yl)-butyl]-piperazin-1-yl}-phenyl)-methanesulfonamide hydrochloride]
- Ki [1]: 0.17 nM
- effect on social interaction deficits induced by prenatal exposure to sodium valproate ([2]; 0.63 mg/kg): significantly reduced
- effect on social interaction deficits induced by prenatal exposure to sodium valproate ([2]; 2.5 mg/kg): completely reversed
- effect on social interaction behavior ([2]; offspring of saline-treated mothers): no significant effects
- affinity for dopamine D2 receptor relative to D3 (times weaker) [3]: 71 times
